Measurements: patent publication US20250197425A1, “2,6,9-TRISUBSTITUTED PURINES” (ASTRAZENECA AB, priority 2022, published 2025)
In brackets after ≈: the same amount, converted by molar mass.

How the values were obtained:
CDK2:CCNE1 = CDK2:CCNE1 (Homo sapiens (Human), UniProt P24941); assay: NanoBRET assay in MCF-7 cells, CDK2; type: cell-based; conditions: transfected MCF-7 cells, 2 hours, n = 1 or average
Procedure: Compounds were tested in breast cancer cell line MCF-7 to assess inhibition of CDK1, CDK2, and CDK4 activity. […] The next day media were evacuated from the wells using the Bluewasher centrifugal plate washer (Bluecatbio) and 10 μL/well phenol red free OptiMEM was then added using a Multidrop Combi. […] Immediately after compound addition, a Tecan HP300 dispensor was used to dispense the relevant NanoBRET™ tracer to the CDK1 wells (12.5 nl, 400 μM, NanoBRET™ TE Tracer K-9), the CDK2 wells (12.5 nl, 200 μM, NanoBRET™ TE Tracer K-9), and the CDK4 wells (8 nl, 100 μM, NanoBRET™ TE Tracer K-7) and the plates were incubated for 2 hours at 37° C. and 5% CO2. […] The plates were incubated in subdued lighting for 10 minutes and then read on a Pherastar FS plate reader (BMG Technologies) using a NanoBRET™ filter module (460±80 nm/610 nm-LP). The ratio values were normalized to controls and the IC50 values of test compounds determined using Genedata Screener software.

CDK1:CCNB1 = CDK1:CCNB1 (Homo sapiens (Human), UniProt P06493); assay: NanoBRET assay in MCF-7 cells, CDK1; type: cell-based; conditions: NanoBRET, transfected MCF-7 cells, 2 hours; n = 1 or average; read-out: CDK1 IC50
Sequence of CDK1:CCNB1 (P06493 whole entry): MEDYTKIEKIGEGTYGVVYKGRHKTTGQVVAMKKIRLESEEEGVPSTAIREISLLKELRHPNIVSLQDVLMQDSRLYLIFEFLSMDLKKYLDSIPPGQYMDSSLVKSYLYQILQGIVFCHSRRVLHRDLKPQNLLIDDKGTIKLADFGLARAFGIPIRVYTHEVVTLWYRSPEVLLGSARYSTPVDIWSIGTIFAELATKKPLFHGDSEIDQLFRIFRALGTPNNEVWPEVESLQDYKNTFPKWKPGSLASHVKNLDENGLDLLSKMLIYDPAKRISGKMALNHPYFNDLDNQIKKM
Sequence of CDK1:CCNB1 (P14635 whole entry partner): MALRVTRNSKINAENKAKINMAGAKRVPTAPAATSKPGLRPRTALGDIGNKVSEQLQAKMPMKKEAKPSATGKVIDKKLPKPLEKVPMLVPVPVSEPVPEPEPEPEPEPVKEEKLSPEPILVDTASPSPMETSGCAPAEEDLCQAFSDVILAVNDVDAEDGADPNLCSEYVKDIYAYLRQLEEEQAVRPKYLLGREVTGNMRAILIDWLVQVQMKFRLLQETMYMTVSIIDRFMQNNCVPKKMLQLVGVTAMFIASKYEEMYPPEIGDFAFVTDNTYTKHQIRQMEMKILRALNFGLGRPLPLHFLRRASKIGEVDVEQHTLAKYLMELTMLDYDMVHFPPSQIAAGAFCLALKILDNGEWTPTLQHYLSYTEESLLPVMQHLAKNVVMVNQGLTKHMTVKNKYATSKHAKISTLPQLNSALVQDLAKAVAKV
Procedure: (§1) Compounds were tested in breast cancer cell line MCF-7 to assess inhibition of CDK1, CDK2, and CDK4 activity. MCF-7 cells transiently transfected with CDK1:CCNB1, CDK2:CCNE1, or CDK4:CCND1 were harvested at a density of 1E5 cells/mL in complete media, seeded 20 μL/well into 384-well Greiner 784080 plates using a Multidrop Combi, and incubated overnight at 37° C. and 5% CO2. The next day media were evacuated from the wells using the Bluewasher centrifugal plate washer (Bluecatbio) and 10 μL/well phenol red free OptiMEM was then added using a Multidrop Combi. […] Immediately after compound addition, a Tecan HP300 dispensor was used to dispense the relevant NanoBRET™ tracer to the CDK1 wells (12.5 nl, 400 μM, NanoBRET™ TE Tracer K-9), the CDK2 wells (12.5 nl, 200 μM, NanoBRET™ TE Tracer K-9), and the CDK4 wells (8 nl, 100 μM, NanoBRET™ TE Tracer K-7) and the plates were incubated for 2 hours at 37° C. and 5% CO2. The plates were allowed to cool for 10 minutes at room temperature and 5 μL/well of TE Nano-Glo®Substrate/Inhibitor at 2.4 μM and 1:500 respectively (N2162 Promega) was added. The plates were incubated in subdued lighting for 10 minutes and then read on a Pherastar FS plate reader (BMG Technologies) using a NanoBRET™ filter module (460±80 nm/610 nm-LP). The ratio values were normalized to controls and the IC50 values of test compounds determined using Genedata Screener software.

CDK4:CCND1 = CDK4:CCND1 (Homo sapiens (Human), UniProt P11802); assay: NanoBRET assay in MCF-7 cells, CDK4; type: cell-based; conditions: NanoBRET, transfected MCF-7 cells, 2 hours; n = 1 or average; read-out: CDK4 IC50
Sequence of CDK4:CCND1 (P11802 whole entry): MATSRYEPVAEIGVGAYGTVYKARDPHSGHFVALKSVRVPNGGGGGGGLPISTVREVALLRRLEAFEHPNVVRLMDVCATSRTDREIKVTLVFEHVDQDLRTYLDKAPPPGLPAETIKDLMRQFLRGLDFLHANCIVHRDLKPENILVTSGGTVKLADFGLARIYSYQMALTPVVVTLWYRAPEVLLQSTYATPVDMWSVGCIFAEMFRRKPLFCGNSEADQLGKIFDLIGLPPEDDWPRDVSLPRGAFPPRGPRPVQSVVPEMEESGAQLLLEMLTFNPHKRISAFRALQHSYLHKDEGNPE
Sequence of CDK4:CCND1 (P24385 whole entry partner): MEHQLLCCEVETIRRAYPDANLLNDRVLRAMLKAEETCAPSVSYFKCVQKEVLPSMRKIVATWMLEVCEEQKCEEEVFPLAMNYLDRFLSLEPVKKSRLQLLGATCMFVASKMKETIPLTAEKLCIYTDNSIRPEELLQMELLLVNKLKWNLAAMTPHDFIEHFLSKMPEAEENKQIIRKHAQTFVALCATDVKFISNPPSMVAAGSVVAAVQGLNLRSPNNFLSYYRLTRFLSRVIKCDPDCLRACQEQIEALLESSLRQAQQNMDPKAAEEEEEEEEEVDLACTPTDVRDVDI
Procedure: as §1

[1] = tested on: NPM phosphorylation (Thr199, CDK2-cyclin E complex); assay: NPM phosphorylation imaging assay in MCF-7 cells; type: cell-based; conditions: Homo sapiens, 4N DNA cells
Procedure: Compounds were tested to assess the effects of CDK2 inhibition in a cellular context. […] During the cell cycle, the CDK2-cyclin E complex phosphorylates NPM at Thr199 which is a prerequisite step for initiation of centrosome duplication.
The cells were fixed by addition of 40 μL/well of 8% paraformaldehyde and incubated at room temperature for 10 minutes. The plates were washed three times with 50 μL/well PBS using a Biotek EL406 plate washer and then permeabilized for 10 minutes at room temperature in 0.3% Triton X100 in PBS. After washing as before, the plates were blocked using 30 μL/well of 2% BSA (w/v) in PBS-T for at least 30 minutes at room temperature. […] Cells containing 4N DNA were selected using the Hoechst staining. Phospho-NPM levels were normalized to controls and the IC50 values of test compounds determined using Genedata Screener software.

[2] = tested on: POLR2A Ser2 phosphorylation (CDK9); assay: POLR2A Ser2 phosphorylation imaging assay in MCF-7 cells; type: cell-based; conditions: Homo sapiens, MCF7, 2 h, MCF-7 cells, 2 hours; read-out: POLR2A Ser2 phosphorylation IC50
Procedure: Compounds were tested to assess their effect on CDK9 activity in a cellular context. […] During the cell cycle, CDK9 is a component of a multiprotein complex that phosphorylates POLR2A Ser2 which results in transcription elongation.
[…] were fixed by addition of 40 μL/well of 8% paraformaldehyde and incubated for 10 minutes at room temperature. The plates were washed three times with 50 μL/well PBS using a Biotek EL406 plate washer and then permeabilized for 10 minutes at room temperature in 0.3% Triton X100 in PBS. After washing as before, the plates were blocked using 30 μL/well of 2% BSA (w/v) in PBS-T for over 30 minutes at room temperature. […] After washing in PBS as before, leaving each well in 40 μL of PBS, the plates were sealed and imaged on a Cell Insight imaging system (Thermo) with a 10× objective and 2 fields of view per well. POLR2A Ser2levels were normalized to controls and the IC50 values of test compounds determined using Genedata Screener software.

MCF-7 cells = assay: Cellular proliferation EdU assay, MCF-7; type: cell-based; conditions: Homo sapiens, MCF7, 48 h, EdU assay, two days; read-out: MCF-7 IC50
Procedure: (§2) Compounds were tested to assess inhibition of cellular proliferation in the breast cancer cell line MCF-7 and the CCNE1-amplified ovarian cell line OVCAR3.
(§3) MCF-7 and OVCAR3 cells in RPMI supplemented with 10% Fetal bovine serum were seeded into 384-well plates (Greiner, Kremsmunster, Austria; 781091), 30 μL/well, using a WellMate. The MCF7 and OVCAR3 cells were seeded at 800 and 1200 cells/well, respectively. Test compounds were added to the wells using an Echo 555 liquid handler and the plates were placed in incubator maintained at 37° C. and 5% CO2 and incubated for two days. On Day 2, an EdU assay was performed following the manufacturer's protocol (Thermo Fisher, C10351). The cells were read on an Acumen eX3 instrument. The IC50 values of test compounds were determined in Genedata by assessing the ratio of signal intensity at 488 nm to the area of signal at 405 nm.

OVCAR3 cells = assay: Cellular proliferation EdU assay, OVCAR3; type: cell-based, human; conditions: Homo sapiens, OVCAR-3, 48 h, EdU assay, two days; read-out: OVCAR3 IC50
Procedure: as §2, §3

[3] = CLint assessment in human liver microsomes (HLM); type: in vitro ADME; conditions: 1 μM
Procedure: After a preincubation with NADPH for 8 minutes, reactions were initiated through the addition of the test compound (final volume 250 μl) and incubated at 37° C. in a water bath for 30 minutes. […] Samples were shaken at 800 rpm for 2 minutes and centrifuged at 4000 rpm for 20 minutes at 4° C. to pellet precipitated protein. The supernatant fraction was diluted 1:5 with deionized water, shaken at 1000 rpm for 2 minutes, and further diluted 1:1 with deionized water. Samples were analyzed by LC-MS/MS. The t1/2 and the CLint of the compounds incubated in the LM, HLM, and HμREL assays as described above were calculated according to the following equations: […] where V (μl/×10^6 cells or mg protein) is the incubation volume (μl) divided by the number of cells (×10^6) or microsomal protein content (mg) in the incubation.

[4] = Aqueous thermodynamic solubility, shake-flask; type: physicochemical; conditions: aqueous phosphate buffer, 25 °C, pH 7.4, aqueous buffer, thermodynamic from solid, phosphate buffer 0.1 M, pH 7.4, 24 hours
Procedure: The DMSO was evaporated and the dried compounds were equilibrated in glass vials in aqueous phosphate buffer (0.1 M, pH 7.4) for 24 hours at 25° C. under constant stirring. The portion with the dissolved compound was then separated from the remainder through a double centrifugation with a tip wash in between to ensure that no residues of the dried compound were interfering. The solutions were diluted with purified water before quantification using UPLC/MS/MS.

| Structure (SMILES) | IC50 (CDK2:CCNE1) [nM] | IC50 (CDK1:CCNB1) [nM] | IC50 (CDK4:CCND1) [µM] | IC50 ([1]; MCF7, 2 h) [nM] | IC50 [2] [µM] | IC50 (MCF-7 cells) [nM] | IC50 (OVCAR3 cells) [nM] | HLM CLint [3] [µL/min/mg] | solubility at 24 h [4] [µM] | IC50 ([1]; MCF7, 2 hours) [nM] |
| --- | --- | --- | --- | --- | --- | --- | --- | --- | --- | --- |
| CCn1cnc2c(N[C@H]3CCN(S(=O)(=O)NC)C3)nc(-c3cccc4c3CC[C@H]4O)nc21 [Example 2, (S)-3-((9-ethyl-2-((R)-1-hydroxy-2,3-dihydro-1H-inden-4-yl)-9H-purin-6-yl)amino)-N-methylpyrrolidine-1-sulfonamide] | 29 | 904 | 17.8 | 301 | 15.4 | 1360 | 404 | 61.6 | 55 (≈ 25.2 µg/mL) | – |
| CCNS(=O)(=O)N1CC[C@H](Nc2nc(N[C@@H](CO)CC3CC3)nc3c2ncn3CC)C1 (relative stereo) [Example 58, (S)-3-((2-(((R*)-1-cyclopropyl-3-hydroxypropan-2-yl)amino)-9-ethyl-9H-purin-6-yl)amino)-N-ethylpyrrolidine-1-sulfonamide] | 17 | 671 | 1.7 | 137 | > 30 | 874 | 431 | 202 | 51.9 (≈ 23.5 µg/mL) | – |
| CC(C)n1cnc2c(N[C@H]3CCN(S(C)(=O)=O)C3)nc(NC(CO)C3CCCC3)nc21 (stereo partly drawn) [Example 15, 2-cyclopentyl-2-((9-isopropyl-6-(((S)-1-(methylsulfonyl)pyrrolidin-3-yl)amino)-9H-purin-2-yl)amino)ethan-1-ol] | 22 | 1220 | 2.6 | 231 | > 30 | 918 | 568 | >300 | 132 (≈ 59.6 µg/mL) | – |
| CC(C)n1cnc2c(N[C@H]3CCN(S(C)(=O)=O)C3)nc(N[C@@H](CO)C3CC3)nc21 [Example 30, (R)-2-cyclopropyl-2-((9-isopropyl-6-(((S)-1-(methylsulfonyl)-pyrrolidin-3-yl)amino)-9H-purin-2-yl)amino)ethanol] | 19 | 746 | 5.7 | – | > 30 | 785 | 191 | 191 | 276 (≈ 117 µg/mL) | 198 |
